Values of other authors, collected in patent US12257323B2, “Modified wound dressings” (CONVATEC TECHNOLOGIES INC., priority 2016, dated 2025).

Tests used:
Details in all cases: cited from earlier work
[1] = target: T1, MMP-1 (Homo sapiens, UniProt P03956)
T1 sequence (P03956 100-469): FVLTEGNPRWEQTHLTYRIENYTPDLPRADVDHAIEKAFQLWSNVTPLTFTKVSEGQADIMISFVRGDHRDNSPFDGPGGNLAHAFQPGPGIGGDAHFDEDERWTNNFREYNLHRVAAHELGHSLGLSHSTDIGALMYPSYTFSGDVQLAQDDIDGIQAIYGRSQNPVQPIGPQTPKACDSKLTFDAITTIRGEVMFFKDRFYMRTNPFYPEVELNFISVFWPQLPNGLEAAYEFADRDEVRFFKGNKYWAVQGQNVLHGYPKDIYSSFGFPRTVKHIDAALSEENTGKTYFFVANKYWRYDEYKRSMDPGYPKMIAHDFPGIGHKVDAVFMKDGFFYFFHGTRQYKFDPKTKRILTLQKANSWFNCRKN

[2] = target: MMP-8 (Homo sapiens, UniProt P22894)
Sequence of MMP-8 (P22894 101-467): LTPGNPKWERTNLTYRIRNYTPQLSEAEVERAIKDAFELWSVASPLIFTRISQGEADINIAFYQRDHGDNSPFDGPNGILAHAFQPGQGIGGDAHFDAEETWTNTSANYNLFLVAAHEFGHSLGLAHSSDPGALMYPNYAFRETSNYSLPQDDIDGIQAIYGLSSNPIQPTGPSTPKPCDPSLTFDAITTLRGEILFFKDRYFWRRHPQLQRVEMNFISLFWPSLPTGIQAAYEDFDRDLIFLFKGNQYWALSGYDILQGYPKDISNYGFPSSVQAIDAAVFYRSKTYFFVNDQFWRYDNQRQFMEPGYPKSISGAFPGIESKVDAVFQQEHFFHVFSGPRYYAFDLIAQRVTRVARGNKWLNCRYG

[3] = target: T2, MMP-2 (Homo sapiens, UniProt P08253)
T2 sequence (P08253 110-660): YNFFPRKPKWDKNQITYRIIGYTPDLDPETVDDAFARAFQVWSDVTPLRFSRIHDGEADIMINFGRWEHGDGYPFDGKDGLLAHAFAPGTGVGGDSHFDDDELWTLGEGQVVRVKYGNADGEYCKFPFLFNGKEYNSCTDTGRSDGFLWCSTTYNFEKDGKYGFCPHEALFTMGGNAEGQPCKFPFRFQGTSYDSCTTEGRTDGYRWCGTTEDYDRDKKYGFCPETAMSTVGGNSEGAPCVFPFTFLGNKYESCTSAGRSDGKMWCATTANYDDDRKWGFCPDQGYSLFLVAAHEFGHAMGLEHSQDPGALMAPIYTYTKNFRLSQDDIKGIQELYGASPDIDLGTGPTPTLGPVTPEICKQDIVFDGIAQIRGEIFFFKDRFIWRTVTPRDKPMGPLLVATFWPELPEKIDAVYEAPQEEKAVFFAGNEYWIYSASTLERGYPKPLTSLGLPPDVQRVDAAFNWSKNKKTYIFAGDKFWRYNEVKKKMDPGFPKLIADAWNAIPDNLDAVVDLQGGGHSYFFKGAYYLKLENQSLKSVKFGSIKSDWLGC

[4] = target: MMP-9 (Homo sapiens, UniProt P14780)
Sequence of MMP-9 (P14780 94-707): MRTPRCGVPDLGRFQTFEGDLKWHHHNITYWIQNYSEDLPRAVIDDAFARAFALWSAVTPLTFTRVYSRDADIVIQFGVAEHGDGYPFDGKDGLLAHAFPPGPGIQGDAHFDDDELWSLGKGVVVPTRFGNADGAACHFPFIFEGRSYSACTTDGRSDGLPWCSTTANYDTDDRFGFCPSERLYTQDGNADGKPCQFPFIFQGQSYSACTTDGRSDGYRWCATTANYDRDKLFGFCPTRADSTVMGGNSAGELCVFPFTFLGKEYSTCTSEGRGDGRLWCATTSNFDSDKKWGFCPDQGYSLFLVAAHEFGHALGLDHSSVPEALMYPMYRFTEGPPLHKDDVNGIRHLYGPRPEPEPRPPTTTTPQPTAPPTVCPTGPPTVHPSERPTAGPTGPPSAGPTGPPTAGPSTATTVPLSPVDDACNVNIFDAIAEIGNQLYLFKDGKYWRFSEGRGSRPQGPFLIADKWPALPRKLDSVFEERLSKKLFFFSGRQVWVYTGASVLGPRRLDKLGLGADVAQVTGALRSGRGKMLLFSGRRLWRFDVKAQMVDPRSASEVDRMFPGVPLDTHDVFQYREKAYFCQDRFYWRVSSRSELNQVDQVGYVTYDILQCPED

[5] = target: MMP-3 (Homo sapiens, UniProt P08254)
Sequence of MMP-3 (P08254 100-477): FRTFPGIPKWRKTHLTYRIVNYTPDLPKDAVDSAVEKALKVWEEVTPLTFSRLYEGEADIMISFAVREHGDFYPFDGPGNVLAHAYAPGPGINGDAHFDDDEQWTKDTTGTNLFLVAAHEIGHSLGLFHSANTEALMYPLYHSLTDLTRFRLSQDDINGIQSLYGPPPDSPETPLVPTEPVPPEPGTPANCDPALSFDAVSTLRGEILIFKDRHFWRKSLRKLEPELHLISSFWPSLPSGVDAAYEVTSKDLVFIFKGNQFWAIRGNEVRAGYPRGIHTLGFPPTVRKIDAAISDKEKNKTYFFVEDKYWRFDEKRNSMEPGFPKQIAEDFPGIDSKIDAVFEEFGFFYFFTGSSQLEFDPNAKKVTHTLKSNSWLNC

[6] = target: T3, MMP-7 (Homo sapiens, UniProt P09237)
T3 sequence (P09237 95-267): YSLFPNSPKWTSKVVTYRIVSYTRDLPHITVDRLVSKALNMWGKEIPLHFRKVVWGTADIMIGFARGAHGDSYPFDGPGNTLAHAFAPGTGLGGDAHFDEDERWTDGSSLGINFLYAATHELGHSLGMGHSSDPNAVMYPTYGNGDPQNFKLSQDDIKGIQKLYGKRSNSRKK

Substance: GIy-Pro-Gln-Gly4Ile-Arg-Gly-Gln
- Relative rate MMP-1 [1]: 180
- Relative rate MMP-8 [2]: 170
- Relative rate MMP-2 [3]: 180
- Relative rate MMP-9 [4]: 200
- Relative rate MMP-3 [5]: 250
- Relative rate MMP-7 [6]: 270

Substance: Gly-Ala-Gln-Gly#Ile-Ala-Gly-Gln (GAQGIAGQ; printed: Gly-Ala-Gln-Gly; printed: Ile-Ala-Gly-Gln)
- Relative rate MMP-1 [1]: 50
- Relative rate MMP-8 [2]: 23
- Relative rate MMP-2 [3]: 22
- Relative rate MMP-9 [4]: 9.4
- Relative rate MMP-3 [5]: 62

Substance: Gly-Asn-Gln-Gly#Ile-Ala-Gly-Gln (GNQGIAGQ; printed: Gly-Asn-Gln-Gly; printed: Ile-Ala-Gly-Gln)
- Relative rate MMP-1 [1]: 17
- Relative rate MMP-8 [2]: 45
- Relative rate MMP-2 [3]: 60
- Relative rate MMP-9 [4]: <5.0
- Relative rate MMP-3 [5]: 68
- Relative rate MMP-7 [6]: 25

Substance: Gly-Pro-Asp-Gly#Ile-Ala-Gly-Gln (GPDGIAGQ; printed: Gly-Pro-Asp-Gly; printed: Ile-Ala-Gly-Gln)
- Relative rate MMP-1 [1]: 30
- Relative rate MMP-8 [2]: 44
- Relative rate MMP-2 [3]: 11
- Relative rate MMP-9 [4]: 10
- Relative rate MMP-3 [5]: 89
- Relative rate MMP-7 [6]: 7.0

Substance: Gly-Pro-Gln-Ala#Ile-Ala-Gly-Gln
- Relative rate MMP-1 [1]: 600
- Relative rate MMP-8 [2]: 320
- Relative rate MMP-2 [3]: 96
- Relative rate MMP-9 [4]: 110
- Relative rate MMP-3 [5]: 300
- Relative rate MMP-7 [6]: 530

Substance: Gly-Pro-Gln-Gln#Ile-Ala-Gly-Gln
- Relative rate MMP-1 [1]: 140
- Relative rate MMP-8 [2]: 150
- Relative rate MMP-2 [3]: 25
- Relative rate MMP-9 [4]: 13
- Relative rate MMP-3 [5]: 140
- Relative rate MMP-7 [6]: 180

Substance: Gly-Pro-Gln-Glu#Ile-Ala-Gly-Gln
- Relative rate MMP-1 [1]: 28
- Relative rate MMP-8 [2]: 330
- Relative rate MMP-2 [3]: 15
- Relative rate MMP-9 [4]: 29
- Relative rate MMP-3 [5]: 190
- Relative rate MMP-7 [6]: 170

Substance: Gly-Pro-Gln-Glv#Met-Ala-Gly-Gln
- Relative rate MMP-1 [1]: 110
- Relative rate MMP-8 [2]: 84
- Relative rate MMP-2 [3]: 230
- Relative rate MMP-9 [4]: 170
- Relative rate MMP-3 [5]: 60
- Relative rate MMP-7 [6]: 89

Substance: Gly-Pro-Gln-Gly#Arg-Ala-Gly-Gln
- Relative rate MMP-1 [1]: <0.5
- Relative rate MMP-8 [2]: <0.5
- Relative rate MMP-2 [3]: <5.0
- Relative rate MMP-9 [4]: <5.0
- Relative rate MMP-3 [5]: <4.9
- Relative rate MMP-7 [6]: <5.0

Substance: Gly-Pro-Gln-Gly#Gln-Ala-Gly-Gln
- Relative rate MMP-1 [1]: 28
- Relative rate MMP-8 [2]: 10
- Relative rate MMP-2 [3]: 34
- Relative rate MMP-9 [4]: 20
- Relative rate MMP-3 [5]: 38
- Relative rate MMP-7 [6]: <5.0

Substance: Gly-Pro-Gln-Gly#Glu-Ala-Gly-Gln
- Relative rate MMP-1 [1]: <0.5
- Relative rate MMP-8 [2]: <0.5
- Relative rate MMP-2 [3]: <5.0
- Relative rate MMP-9 [4]: <5.0
- Relative rate MMP-3 [5]: <0.5
- Relative rate MMP-7 [6]: 8.0

Substance: Gly-Pro-Gln-Gly#Ile-Ala-Ala-Gln
- Relative rate MMP-1 [1]: 220
- Relative rate MMP-8 [2]: 120
- Relative rate MMP-2 [3]: 180
- Relative rate MMP-9 [4]: 140
- Relative rate MMP-3 [5]: 280
- Relative rate MMP-7 [6]: 300

Substance: Gly-Pro-Gln-Gly#Ile-Ala-Arg-Gln
- Relative rate MMP-1 [1]: 55
- Relative rate MMP-8 [2]: 34
- Relative rate MMP-2 [3]: 35
- Relative rate MMP-9 [4]: 45
- Relative rate MMP-3 [5]: 490
- Relative rate MMP-7 [6]: 220

Substance: Gly-Pro-Gln-Gly#Ile-Ala-Gly His
- Relative rate MMP-1 [1]: 91
- Relative rate MMP-8 [2]: 145
- Relative rate MMP-2 [3]: 150
- Relative rate MMP-9 [4]: 120
- Relative rate MMP-3 [5]: 110
- Relative rate MMP-7 [6]: 87

Substance: Gly-Pro-Gln-Gly#Ile-Ala-Gly-Ala
- Relative rate MMP-1 [1]: 86
- Relative rate MMP-8 [2]: 110
- Relative rate MMP-2 [3]: 85
- Relative rate MMP-9 [4]: 110
- Relative rate MMP-3 [5]: 130
- Relative rate MMP-7 [6]: 91

Substance: Gly-Pro-Gln-Gly#Ile-Ala-Gly-Gln
- Relative rate MMP-1 [1]: 100
- Relative rate MMP-8 [2]: 100
- Relative rate MMP-2 [3]: 100
- Relative rate MMP-9 [4]: 100
- Relative rate MMP-3 [5]: 100
- Relative rate MMP-7 [6]: 100

Substance: Gly-Pro-Gln-Gly#Ile-Ala-Gly-Thr
- Relative rate MMP-1 [1]: 160
- Relative rate MMP-8 [2]: 145
- Relative rate MMP-2 [3]: 59
- Relative rate MMP-9 [4]: 160
- Relative rate MMP-3 [5]: 72
- Relative rate MMP-7 [6]: 100

Substance: Gly-Pro-Gln-Gly#Ile-Ala-Met-Gln
- Relative rate MMP-1 [1]: 130
- Relative rate MMP-8 [2]: 34
- Relative rate MMP-2 [3]: 40
- Relative rate MMP-9 [4]: 35
- Relative rate MMP-3 [5]: 810
- Relative rate MMP-7 [6]: 450

Substance: Gly-Pro-Gln-Gly#Ile-Ala-Ser-Gln
- Relative rate MMP-1 [1]: 91
- Relative rate MMP-8 [2]: 58
- Relative rate MMP-2 [3]: 320
- Relative rate MMP-9 [4]: 130
- Relative rate MMP-3 [5]: 230
- Relative rate MMP-7 [6]: 150

Substance: Gly-Pro-Gln-Gly#Ile-Ala-Val-Gln
- Relative rate MMP-1 [1]: 100
- Relative rate MMP-8 [2]: 57
- Relative rate MMP-2 [3]: 26
- Relative rate MMP-9 [4]: 49
- Relative rate MMP-3 [5]: 170
- Relative rate MMP-7 [6]: 170

Substance: Gly-Pro-Gln-Gly#Ile-Glu-Gly-Gln
- Relative rate MMP-1 [1]: 35
- Relative rate MMP-8 [2]: 59
- Relative rate MMP-2 [3]: 85
- Relative rate MMP-9 [4]: 130
- Relative rate MMP-3 [5]: 58
- Relative rate MMP-7 [6]: 86

Substance: Gly-Pro-Gln-Gly#Ile-Hyp-Gly-Gln
- Relative rate MMP-1 [1]: 7.3
- Relative rate MMP-8 [2]: 1.5
- Relative rate MMP-2 [3]: 32
- Relative rate MMP-9 [4]: 11
- Relative rate MMP-3 [5]: 42
- Relative rate MMP-7 [6]: 8.0

Substance: Gly-Pro-Gln-Gly#Ile-Leu-Gly-Gln
- Relative rate MMP-1 [1]: 430
- Relative rate MMP-8 [2]: 400
- Relative rate MMP-2 [3]: 400
- Relative rate MMP-9 [4]: 240
- Relative rate MMP-3 [5]: 280
- Relative rate MMP-7 [6]: 250

Substance: Gly-Pro-Gln-His#Ile-Ala-Gly-Gln
- Relative rate MMP-1 [1]: 190
- Relative rate MMP-8 [2]: 50
- Relative rate MMP-2 [3]: 65
- Relative rate MMP-9 [4]: 44
- Relative rate MMP-3 [5]: 87
